According to ChEMBL document CHEMBL1201862, “PubChem BioAssay data set” (2004):
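Values below derive from 48-hour exposures of cells grown in 96-well plates, with endpoints linearly interpolated between the two concentrations bracketing the appropriate inhibition level. GI50 is the concentration that inhibits growth by half.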 Active and inactive are the calls of the source. Cut-off read from the data, not from the text of the source: active = GI50 up to about 1.1 µM and inactive = higher.

Key:
Test in all cases: inhibition of tumour cell growth, NCI panel, 48 h
[1] = system: A498
[2] = system: A549
[3] = system: ACHN
[4] = system: CCRF-CEM
[5] = system: HCT-15
[6] = system: HL-60
[7] = system: HOP-62
[8] = system: K562
[9] = system: KM-20L2
[10] = system: LOX IMVI
[11] = system: MOLT-4
[12] = system: NCI-H522
[13] = system: OVCAR-4
[14] = system: OVCAR-5
[15] = system: SF-295
[16] = system: SK-OV-3
[17] = system: SNB-19
[18] = system: UACC-257
[19] = system: UO-31
[20] = system: HOP-18

Compound: O=C(c1ccccc1)c1ccc2c(c1)N=C(c1ccc(Cl)c(Cl)c1)CC(c1ccc3ccccc3c1)N2 (configuration not stated)
- GI50 [1]: > 100 µM (inactive)
- GI50 [2]: > 100 µM (inactive)
- GI50 [3]: > 100 µM (inactive)
- GI50 [4]: 67.6 µM (inactive)
- GI50 [5]: > 100 µM
- GI50 [6]: 69 µM (inactive)
- GI50 [7]: > 100 µM (inactive)
- GI50 [8]: > 100 µM (inactive)
- GI50 [9]: > 100 µM (inactive)
- GI50 [10]: > 100 µM (inactive)
- GI50 [11]: > 100 µM (inactive)
- GI50 [12]: > 100 µM (inactive)
- GI50 [13]: > 100 µM (inactive)
- GI50 [14]: > 100 µM (inactive)
- GI50 [15]: > 100 µM (inactive)
- GI50 [16]: > 100 µM (inactive)
- GI50 [17]: > 100 µM (inactive)
- GI50 [18]: > 100 µM (inactive)
- GI50 [19]: > 100 µM (inactive)

Compound: COc1nc2ccc(Cl)c(C(O)c3ccccc3)c2nc1OC (configuration not stated)
- GI50 [1]: 18.6 µM (inactive)
- GI50 [2]: 23.8 µM (inactive)
- GI50 [3]: 30.2 µM (inactive)
- GI50 [4]: 12.6 µM (inactive)
- GI50 [5]: 20.6 µM
- GI50 [6]: 19.2 µM (inactive)
- GI50 [7]: 16.5 µM (inactive)
- GI50 [8]: 18.6 µM (inactive)
- GI50 [10]: 17.5 µM (inactive)
- GI50 [11]: 17.6 µM (inactive)
- GI50 [12]: 15.7 µM (inactive)
- GI50 [13]: 26.6 µM (inactive)
- GI50 [14]: 29 µM (inactive)
- GI50 [15]: 10.5 µM (inactive)
- GI50 [17]: 24.9 µM (inactive)
- GI50 [18]: 24.6 µM (inactive)
- GI50 [19]: 22.1 µM (inactive)

Compound: S=C1NN=C2C(=C3CCCC4C5CCCCC5N2C34)N1 (configuration not stated)
- GI50 [2]: > 100 µM (inactive)
- GI50 [3]: > 100 µM (inactive)
- GI50 [4]: 37.2 µM (inactive)
- GI50 [5]: > 100 µM
- GI50 [6]: > 100 µM (inactive)
- GI50 [7]: > 100 µM (inactive)
- GI50 [8]: 38 µM (inactive)
- GI50 [10]: 56.4 µM (inactive)
- GI50 [11]: 38 µM (inactive)
- GI50 [12]: 62.2 µM (inactive)
- GI50 [13]: > 100 µM (inactive)
- GI50 [14]: > 100 µM (inactive)
- GI50 [15]: > 100 µM (inactive)
- GI50 [16]: > 100 µM (inactive)
- GI50 [17]: > 100 µM (inactive)
- GI50 [18]: > 100 µM (inactive)
- GI50 [19]: > 100 µM (inactive)

Compound: CCN1CC2(CO)CCC(OC)C34C5CC6C(OC)CC(O)(C5C6OC)C(O)(C(OC)C23)C14 (configuration not stated)
- GI50 [1]: > 375 µM (inactive)
- GI50 [2]: > 375 µM (inactive)
- GI50 [4]: > 375 µM (inactive)
- GI50 [5]: > 375 µM
- GI50 [6]: > 375 µM (inactive)
- GI50 [20]: > 375 µM (inactive)
- GI50 [7]: > 375 µM (inactive)
- GI50 [8]: > 375 µM (inactive)
- GI50 [9]: > 197 µM (inactive)
- GI50 [10]: > 375 µM (inactive)
- GI50 [11]: > 375 µM (inactive)
- GI50 [12]: > 375 µM (inactive)
- GI50 [13]: > 375 µM (inactive)
- GI50 [14]: > 177 µM (inactive)
- GI50 [15]: > 375 µM (inactive)
- GI50 [16]: > 375 µM (inactive)
- GI50 [17]: > 375 µM (inactive)
- GI50 [18]: > 375 µM (inactive)
- GI50 [19]: > 375 µM (inactive)

Compound: O=C(O)CCC(NC(=O)c1ccc(Nc2nc3ccc(C(F)(F)F)cc3nc2-c2ccccc2)cc1)C(=O)O (configuration not stated)
- GI50 [1]: > 100 µM (inactive)
- GI50 [2]: > 100 µM (inactive)
- GI50 [4]: > 100 µM (inactive)
- GI50 [5]: > 100 µM
- GI50 [6]: > 100 µM (inactive)
- GI50 [20]: 3.37 µM (inactive)
- GI50 [7]: > 100 µM (inactive)
- GI50 [8]: 29.6 µM (inactive)
- GI50 [9]: > 100 µM (inactive)
- GI50 [10]: > 100 µM (inactive)
- GI50 [11]: > 100 µM (inactive)
- GI50 [12]: > 100 µM (inactive)
- GI50 [13]: > 100 µM (inactive)
- GI50 [14]: > 100 µM (inactive)
- GI50 [15]: > 100 µM (inactive)
- GI50 [16]: > 100 µM (inactive)
- GI50 [17]: > 100 µM (inactive)
- GI50 [18]: > 100 µM (inactive)
- GI50 [19]: > 100 µM (inactive)

Compound: C=CCCC1(C)CCCNC1=S (configuration not stated)
- GI50 [1]: > 100 µM (inactive)
- GI50 [2]: > 100 µM (inactive)
- GI50 [3]: > 100 µM (inactive)
- GI50 [4]: 17.7 µM (inactive)
- GI50 [5]: > 100 µM
- GI50 [6]: > 100 µM (inactive)
- GI50 [20]: > 100 µM (inactive)
- GI50 [7]: > 100 µM (inactive)
- GI50 [8]: > 100 µM (inactive)
- GI50 [9]: > 100 µM (inactive)
- GI50 [10]: > 100 µM (inactive)
- GI50 [11]: > 100 µM (inactive)
- GI50 [13]: > 100 µM (inactive)
- GI50 [14]: > 100 µM (inactive)
- GI50 [15]: > 100 µM (inactive)
- GI50 [16]: > 100 µM (inactive)
- GI50 [17]: > 100 µM (inactive)
- GI50 [18]: > 100 µM (inactive)
- GI50 [19]: > 100 µM (inactive)

Compound: c1ccc(Sc2nc(Sc3ccccc3)nc(Sc3ccccc3)n2)cc1
- GI50 [1]: 29.9 µM (inactive)
- GI50 [2]: 28.5 µM (inactive)
- GI50 [3]: 29.8 µM (inactive)
- GI50 [4]: 6.46 µM (inactive)
- GI50 [5]: 33.4 µM
- GI50 [6]: 6.38 µM (inactive)
- GI50 [7]: 35.7 µM (inactive)
- GI50 [8]: > 100 µM (inactive)
- GI50 [10]: > 100 µM (inactive)
- GI50 [11]: 17.8 µM (inactive)
- GI50 [12]: 97.1 µM (inactive)
- GI50 [13]: 55 µM (inactive)
- GI50 [14]: 58.7 µM (inactive)
- GI50 [15]: 63.7 µM (inactive)
- GI50 [16]: > 100 µM (inactive)
- GI50 [17]: 31.8 µM (inactive)
- GI50 [18]: 30.3 µM (inactive)
- GI50 [19]: 57 µM (inactive)

Compound: O=CNc1cccc2c3c([nH]c12)CCCCCC3
- GI50 [1]: 76.6 µM (inactive)
- GI50 [2]: > 100 µM (inactive)
- GI50 [4]: > 77.8 µM (inactive)
- GI50 [5]: > 100 µM
- GI50 [6]: > 100 µM (inactive)
- GI50 [20]: > 100 µM (inactive)
- GI50 [7]: > 100 µM (inactive)
- GI50 [8]: 67.9 µM (inactive)
- GI50 [9]: > 100 µM (inactive)
- GI50 [10]: > 100 µM (inactive)
- GI50 [11]: 66.1 µM (inactive)
- GI50 [12]: > 67.1 µM (inactive)
- GI50 [13]: > 100 µM (inactive)
- GI50 [14]: > 100 µM (inactive)
- GI50 [15]: > 62.4 µM (inactive)
- GI50 [16]: > 100 µM (inactive)
- GI50 [17]: > 100 µM (inactive)
- GI50 [18]: > 87.3 µM (inactive)
- GI50 [19]: > 82.4 µM (inactive)

Compound: CCC12CCC[C@@]13C=C[C@H](O3)C(C)(C)C2=O (some centres not stated)
- GI50 [2]: > 100 µM (inactive)
- GI50 [3]: > 100 µM (inactive)
- GI50 [4]: > 100 µM (inactive)
- GI50 [5]: > 100 µM
- GI50 [6]: > 100 µM (inactive)
- GI50 [20]: > 100 µM (inactive)
- GI50 [7]: > 100 µM (inactive)
- GI50 [8]: > 100 µM (inactive)
- GI50 [9]: > 100 µM (inactive)
- GI50 [10]: > 100 µM (inactive)
- GI50 [11]: > 100 µM (inactive)
- GI50 [12]: > 100 µM (inactive)
- GI50 [13]: > 100 µM (inactive)
- GI50 [14]: > 100 µM (inactive)
- GI50 [15]: > 100 µM (inactive)
- GI50 [16]: > 100 µM (inactive)
- GI50 [17]: > 100 µM (inactive)
- GI50 [18]: > 100 µM (inactive)
- GI50 [19]: > 100 µM (inactive)

Compound: Nc1nc(=O)n(C2OC(CO)C(O)C2O)cc1F (configuration not stated)
- GI50 [1]: > 100 µM (inactive)
- GI50 [2]: 0.255 µM (active)
- GI50 [4]: < 0.0136 µM (active)
- GI50 [5]: 3.13 µM
- GI50 [6]: 0.293 µM (active)
- GI50 [20]: 2.44 µM (inactive)
- GI50 [7]: 0.228 µM (active)
- GI50 [8]: 0.506 µM (active)
- GI50 [9]: 2.29 µM (inactive)
- GI50 [10]: 0.297 µM (active)
- GI50 [11]: < 0.0166 µM (active)
- GI50 [12]: 0.785 µM (active)
- GI50 [13]: > 100 µM (inactive)
- GI50 [14]: 0.855 µM (active)
- GI50 [15]: 21.8 µM (inactive)
- GI50 [16]: > 100 µM (inactive)
- GI50 [17]: 1.91 µM (inactive)
- GI50 [18]: 3.78 µM (inactive)
- GI50 [19]: 10.3 µM (inactive)

Compound: O[C@H]1[C@H](O)[C@@H](O)CN2CC[C@H](O)[C@H]12 [CASTANOSPERMINE]
- GI50 [1]: > 100 µM (inactive)
- GI50 [2]: > 100 µM (inactive)
- GI50 [4]: > 100 µM (inactive)
- GI50 [5]: > 100 µM
- GI50 [6]: > 39.8 µM (inactive)
- GI50 [20]: > 100 µM (inactive)
- GI50 [7]: > 100 µM (inactive)
- GI50 [8]: > 100 µM (inactive)
- GI50 [9]: > 100 µM (inactive)
- GI50 [10]: > 100 µM (inactive)
- GI50 [11]: > 100 µM (inactive)
- GI50 [12]: > 100 µM (inactive)
- GI50 [13]: > 86.7 µM (inactive)
- GI50 [14]: > 100 µM (inactive)
- GI50 [15]: > 100 µM (inactive)
- GI50 [16]: > 100 µM (inactive)
- GI50 [17]: > 100 µM (inactive)
- GI50 [18]: > 100 µM (inactive)
- GI50 [19]: > 94.4 µM (inactive)

Compound: COc1ccc(-c2oc3cc(O)cc(O)c3c(=O)c2OC)cc1 [ERMANIN]
- GI50 [1]: 24.4 µM (inactive)
- GI50 [2]: 34.9 µM (inactive)
- GI50 [3]: 24.3 µM (inactive)
- GI50 [4]: 22.1 µM (inactive)
- GI50 [5]: 23.4 µM
- GI50 [6]: 14.1 µM (inactive)
- GI50 [7]: 26.6 µM (inactive)
- GI50 [8]: 9.79 µM (inactive)
- GI50 [10]: 38.2 µM (inactive)
- GI50 [11]: 20.9 µM (inactive)
- GI50 [12]: 2.48 µM (inactive)
- GI50 [13]: 44.6 µM (inactive)
- GI50 [14]: > 100 µM (inactive)
- GI50 [15]: 26.6 µM (inactive)
- GI50 [16]: 4.66 µM (inactive)
- GI50 [17]: 32.7 µM (inactive)
- GI50 [18]: 59.8 µM (inactive)
- GI50 [19]: 21.6 µM (inactive)
